From patent US3985742A, “Process for preparing 3-hydroxymethyl cephalosporins” (priority 1975, dated 1976)
Where a name gives a salt, the structure may show the parent alone. Read-outs that look alike come from different tables or passages of the source.

Tests used:
[1] = test system: Pseudomonas stutzeri MB-1231; test: disc zone bioassay of derivatives; type: cell-based; conditions: Stutzerimonas stutzeri, MB1231, 100γ/ml; read-out: disc zone size
Text: (§1) Bioassay: the disc zone sizes in the following table are expressed in mm. for 100γ/ml of antibiotic.
(§2) Bioassay: the disc zone sizes in the following table are expressed in mm. for equal concentrations of antibiotic.
(§3) Bioassay: The disc zone sizes in the following table are expressed in mm. for equal concentrations of antibiotic.

Vibrio percolans MB-1272 = test: disc-plate bioassay using Vibrio percolans; conditions: Comamonas terrigena; for zone of inhibition at 100 µg/mL: MB1272, read-out: disc zone size, 100γ/ml
Escherichia coli W-MB-60 [2] = test: disc zone bioassay of derivatives; type: cell-based; conditions: WMB60, 100γ/ml, read-out: disc zone size
Text: as §1, §3

[3] = test system: Staphylococcus aureus (Streptomycin-Streptothricin-resistant); test: disc-plate agar diffusion, antibacterial spectrum; type: cell-based; conditions: read-out: Inhibition Zone Diameter
Sarcina lutea = test: disc-plate agar diffusion, antibacterial spectrum; type: cell-based; conditions: Micrococcus luteus; 166 μg/ml; 25 °C; 7 mm = no zone; read-out: Inhibition Zone Diameter
Escherichia coli W-MB-60 [4] = test: special effects spectrum, disc-plate agar diffusion; type: cell-based; conditions: WMB60, 166 μg/ml, read-out: Inhibition Zone Diameter
Vibrio percolans = test: disc-plate agar diffusion, antibacterial spectrum; type: cell-based; conditions: Comamonas terrigena; 166 μg/ml; 27 °C; 7 mm = no zone; read-out: Inhibition Zone Diameter
Brucella bronchiseptica = test: microbe, parasite or virus in culture; type: cell-based; conditions: Bordetella bronchiseptica, read-out: Inhibition Zone Diameter
[5] = test system: Escherichia coli, Viomycin-resistant; test: cross-resistance, disc-plate agar diffusion; type: cell-based; conditions: read-out: Inhibition Zone Diameter
Streptococcus faecalis = test: disc-plate agar diffusion, antibacterial spectrum; type: cell-based; conditions: Enterococcus faecalis; 166 μg/ml; 37 °C; 7 mm = no zone; read-out: Inhibition Zone Diameter
Proteus vulgaris [6] = test: disc-plate agar diffusion, antibacterial spectrum; type: cell-based; conditions: 166 μg/ml, 37 °C, 7 mm = no zone, read-out: Inhibition Zone Diameter
[7] = test system: Escherichia coli, Oxytetracycline-resistant; test: cross-resistance, disc-plate agar diffusion; type: cell-based; conditions: read-out: Inhibition Zone Diameter
[8] = test system: Escherichia coli, Streptothricin-resistant; test: cross-resistance, disc-plate agar diffusion; type: cell-based; conditions: read-out: Inhibition Zone Diameter
[9] = test system: Escherichia coli, Neomycin-resistant; test: cross-resistance, disc-plate agar diffusion; type: cell-based; conditions: read-out: Inhibition Zone Diameter
Staphylococcus aureus = test: disc-plate agar diffusion, antibacterial spectrum; type: cell-based; conditions: 166 μg/ml, 25 °C, 7 mm = no zone, read-out: Inhibition Zone Diameter
Pseudomonas aeruginosa = test: disc-plate agar diffusion, antibacterial spectrum; type: cell-based; conditions: 166 μg/ml, 25 °C, 7 mm = no zone, read-out: Inhibition Zone Diameter
Serratia marcescens = test: disc-plate agar diffusion, antibacterial spectrum; type: cell-based; conditions: 166 μg/ml, 25 °C, 7 mm = no zone, read-out: Inhibition Zone Diameter
Alcaligenes faecalis = test: disc-plate agar diffusion, antibacterial spectrum; type: cell-based; conditions: 166 μg/ml, 37 °C, 7 mm = no zone, read-out: Inhibition Zone Diameter
[10] = test system: Escherichia coli, Chloramphenicol-resistant; test: cross-resistance, disc-plate agar diffusion; type: cell-based; conditions: read-out: Inhibition Zone Diameter
Proteus vulgaris [11] = test: disc-plate bioassay using Proteus vulgaris; conditions: for zone of inhibition at 100 µg/mL: read-out: disc zone size
[12] = test system: Salmonella gallinarum MB-1287; test: disc zone bioassay of derivatives; type: cell-based; conditions: Salmonella enterica, 100γ/ml, read-out: disc zone size
Text: as §2, §3

[13] = test system: Aerobacter cloacae MB-2646; test: enzymatic inactivation by cell-free extract; conditions: for Antibiotic Activity Remaining: start 250 μg/ml
Experimental: The ability of Antibiotic 810A and cephalosporin C to withstand the degradative effect of the culture Aerobacter cloacae (MB-2646) was also determined. This culture is gram-negative and resistant to cephalosporin C. […] The source of the inactivating substance is a 1:160 dilution of the filtrate of an 18 hour 37° C. shake culture of Aerobacter cloacae MB-2646 in nutrient broth containing 0.2% yeast extract. Table XIV, infra, indicates the percent inactivation of Antibiotic 810A, cephalothin, cephaloridine and cephalosporin C on Vibrio percolans (MB-1272) via this method:
Using the same assay procedure as described above, Table XV, infra, indicates the relative resistance of Antibiotic 810A to enzymatic inactivation by Aerobacter cloacae. The starting concentration is 250 μg./ml. Results are expressed in μg./ml.

[14] = test system: Alcaligenes faecalis MB-9; test: bacterial inactivation by washed bacterial cells; conditions: start 4 mg/ml
Proteus mirabilis 241 = test: bacterial inactivation; conditions: 4 hours; assayed on B. subtilis (MB-964)
Experimental: (§4) These cultures are: Escherichia coli 236, Proteus morganii 251, Proteus morganii 356 and Proteus mirabilis 241. […] In conducting the assay, individual mixtures of the organisms and one of the antibiotics were sampled after four hours incubation and assayed for residual antibiotic activity. The procedure is the same assay method as described above against Alcaligenes faecalis MB-9 and A. viscosus MB-12.

Proteus morganii 356 [15] = test: bacterial inactivation; conditions: 4 hours; assayed on B. subtilis (MB-964)
Experimental: as §4

Proteus morganii 251 = test: bacterial inactivation; conditions: 4 hours; assayed on B. subtilis (MB-964)
Experimental: as §4

Escherichia coli 236 = test: bacterial inactivation; conditions: 4 hours; assayed on B. subtilis (MB-964)
Experimental: as §4

[16] = test system: Alcaligenes viscosus MB-12; test: bacterial inactivation by washed bacterial cells; conditions: 4 hour; assayed on B. subtilis (MB-964); start 4 mg/ml
Proteus morganii 356 [17] = test: mouse protection test, clinical isolate; type: in vivo, mice; conditions: subcutaneous × 2 doses
Text: In addition to the aforementioned in vivo trials of the product, a clinical isolate of Proteus morganii 356 which is resistant to cephalosporins and capable of degrading cephalosporin C, was employed in a mouse protection test performed in the same manner as reported above.

Proteus morganii 3202 = test: mouse protection test; type: in vivo, mice; design: dose or concentration left out as unconfirmed; conditions: × 2 doses, subcutaneous
Experimental: Methods: The method employed in this characterization is as follows: Female white Swiss mice, average weight 20-23 grams, were infected intraperitoneally with 3-20 times the number of organisms calculated to be lethal for 50% of the infected control animals (3-20 LD50 doses). At the time of infection and again 6 hours later, therapy was given by the designated route. Controls of the virulence of the culture and the toxicity of the antibiotic for uninfected mice were included in the tests. Seven days after infection the test was considered complete and the amount of the antibiotic (I) that would be required to protect 50% of the infected and treated animals was calculated by the method of Knudsen and Curtis; J. Amer. Stat. Assoc. Vol. 42: page 282 (1947).
The method employed in these studies is the same as described above with regard to the in vivo characterization of 810A. The results of these tests are described below in Table XIb:
Administration was by subcutaneous injection. At the completion of the test period, usually seven days after administration, the amount of product required to protect 50% of the mice (ED50) from this otherwise fatal injection was calculated: […]

[18] = 2 hour, assayed on V. percolans (MB-1272)
[19] = 2 hour, assayed on B. subtilis 964
[20] = 2 hour, assayed on V. percolans 1272

Compound `CO[C@@]1(NC(=O)CCC[C@@H](N)C(=O)O)C(=O)N2C(C(=O)O)=C(CSc3nc(C)cs3)CS[C@@H]21` [7β-(D-5-amino-5-carboxyvaleramido)-3-(4-methylthiazol-2-ylmercaptomethyl)-7-methoxy-3-cephem-4-carboxylic acid] has a zone of inhibition at 100 µg/mL [1] of 13.5 mm, a zone of inhibition at 100 µg/mL (Vibrio percolans MB-1272) of 20 mm and a zone of inhibition at 100 µg/mL (Escherichia coli W-MB-60 [2]) of 14 mm.

Work on `CO[C@@]1(NC(=O)CCC[C@@H](N)C(=O)O)C(=O)N2C(C(=O)O)=C(COC(N)=O)CS[C@@H]21` yielded an IC (25 mm zone) (Vibrio percolans MB-1272; MB1272, read-out: concentration giving a 25 mm zone, Vibrio percolans) of 8 µg/mL.

`CO[C@@]1(NC(=O)CCC[C@@H](N)C(=O)O)C(=O)N2C(C(=O)O)=C(COC(N)=O)CS[C@@H]21` [Free Acid] gave a zone of inhibition at 166 µg/mL [3] of 11 mm, a zone of inhibition at 166 µg/mL (Sarcina lutea) of 10 mm and a zone of inhibition at 166 µg/mL (Escherichia coli W-MB-60 [4]; 0.1 M phosphate buffer pH 7, 25 °C) of 29 mm. It also gave a zone of inhibition at 166 µg/mL (Escherichia coli W-MB-60 [4]; 0.1 M phosphate buffer pH 9, 25 °C) of 22 mm, a zone of inhibition at 166 µg/mL (Escherichia coli W-MB-60 [4]; human blood plasma 20%, 25 °C) of 22 mm and a zone of inhibition at 166 µg/mL (Vibrio percolans) of 30 mm. It also gave a zone of inhibition at 166 µg/mL (Brucella bronchiseptica) of 24 mm, a zone of inhibition at 166 µg/mL [5] of 16 mm and a zone of inhibition at 166 µg/mL (Streptococcus faecalis) of 7 mm. The zone of inhibition at 166 µg/mL (Proteus vulgaris [6]) was 22 mm, the zone of inhibition at 166 µg/mL [7] was 23 mm and the zone of inhibition at 166 µg/mL [8] was 14 mm. For the same compound, the zone of inhibition at 166 µg/mL [9] was 17 mm, the zone of inhibition at 166 µg/mL (Staphylococcus aureus) was 7 mm and the zone of inhibition at 166 µg/mL (Pseudomonas aeruginosa) was 7 mm. It also gave a zone of inhibition at 166 µg/mL (Serratia marcescens) of 7 mm, a zone of inhibition at 166 µg/mL (Alcaligenes faecalis) of 27 mm and a zone of inhibition at 166 µg/mL [10] of 17 mm.

`CO[C@@]1(NC(=O)CCC[C@@H](N)C(=O)O)C(=O)N2C(C(=O)O)=C(COC(N)=O)CS[C@@H]21` [Disodium Salt of 842A] showed a zone of inhibition at 100 µg/mL [1] of 22 mm, a zone of inhibition at 100 µg/mL (Vibrio percolans MB-1272) of 18 mm and a zone of inhibition at 100 µg/mL (Escherichia coli W-MB-60 [2]) of 18 mm. It also gave a zone of inhibition at 100 µg/mL (Proteus vulgaris [11]) of 27 mm and a zone of inhibition at 100 µg/mL [12] of 27 mm.

With `CC(=O)OCC1=C(C(=O)O)N2C(=O)[C@@H](NC(=O)CCC[C@@H](N)C(=O)O)[C@H]2SC1` [Cephalosporin C, reference compound] the “Percent Inactivation After Incubation With Cell-Free Extract” value [13, 18] was 96%, the “Percent Inactivation After Incubation With Washed Bacterial Cells” value ([14]; 3 hour, assayed on B. subtilis (MB-964)) was > 99% and the “Percent Inactivation After Incubation With Washed Bacterial Cells” value ([14]; 3 hour, assayed on V. percolans (MB-1272)) was > 99%. For the same compound, the “Percent Inactivation After Incubation With Washed Bacterial Cells” value ([14]; 4 hour, assayed on B. subtilis (MB-964)) was > 99%, the percent inactivation (Proteus mirabilis 241) was 72% and the percent inactivation (Proteus morganii 356 [15]) was > 99%. The percent inactivation (Proteus morganii 251) was > 99%, the percent inactivation (Escherichia coli 236) was > 99% and the “Percent Inactivation After Incubation With Washed Bacterial Cells” value [16] was > 99%.

`CO[C@@]1(NC(=O)CCC[C@@H](N)C(=O)O)C(=O)N2C(C(=O)O)=C(CSC(=N)N)CS[C@@H]21` [S-[7β-(D-5-amino-5-carboxyvaleramido)-4-carboxy-7-methoxy-3-cephem-3-yl-methyl]thiouronium] showed a zone of inhibition at 100 µg/mL [1] of 22 mm, a zone of inhibition at 100 µg/mL (Vibrio percolans MB-1272) of 27 mm and a zone of inhibition at 100 µg/mL (Proteus vulgaris [11]) of 17 mm. The zone of inhibition at 100 µg/mL [12] was 23 mm.

In the case of `O=C(Cc1cccs1)N[C@@H]1C(=O)N2C(C(=O)[O-])=C(C[n+]3ccccc3)CS[C@H]12` [Cephaloridine], the “Antibiotic Activity Remaining” value [13, 19] is reported as < 10 µg/mL, the “Antibiotic Activity Remaining” value [13, 20] is reported as < 10 µg/mL and the “Percent Inactivation After Incubation With Cell-Free Extract” value ([13]; bacterial culture filtrate, 2 h) is reported as 96%. The “ED50 (average of Two Trials)” value (Proteus morganii 356 [17]) was 9,270 μg and the protection (Proteus morganii 3202) was “failed to protect”.

`CC(=O)OCC1=C(C(=O)O)N2C(=O)[C@@H](NC(=O)Cc3cccs3)[C@H]2SC1` [Cephalothin] was tested, and the “Percent Inactivation After Incubation With Cell-Free Extract” value [13, 18] was 66%, the “Antibiotic Activity Remaining” value [13, 19] was 140 µg/mL and the “Antibiotic Activity Remaining” value [13, 20] was 85 µg/mL. The “ED50 (average of Two Trials)” value (Proteus morganii 356 [17]) was > 20,000 μg and the protection (Proteus morganii 3202) was “failed to protect”.

In the case of `CO[C@@]1(NC(=O)CCC[C@@H](N)C(=O)O)C(=O)N2C(C(=O)O)=C(CN)CS[C@@H]21` [7β-(D-5-amino-5-carboxyvaleramido)-3-(aminomethyl)-7-methoxy-3-cephem-4-carboxylic acid], the zone of inhibition at 100 µg/mL [1] is reported as 21 mm, the zone of inhibition at 5 µg/mL (Vibrio percolans MB-1272; MB1272, read-out: disc zone size, 5γ/ml) is reported as 20 mm and the zone of inhibition at 100 µg/mL [12] is reported as 21 mm.

For `COC(=Cc1ccc(O)cc1)C(=O)OCC1=C(C(=O)O)N2C(=O)[C@](NC(=O)CCC[C@@H](N)C(=O)O)(OC)[C@H]2SC1` [7β-(D-5-amino-5-carboxyvaleramido)-3-(α-methoxy-p-hydroxycinnamoyloxymethyl)-7-methoxy-3-cephem-4-carboxylic acid], the IC (25 mm zone) (Proteus vulgaris [11]; read-out: concentration giving a 25 mm zone (bioassay potency)) was 167 µg/mL.
